Data: publication PMC8800111 (The Journal of Biological Chemistry, 2021)

Key:
[1] = design: method as in printed; details: patients taking this drug for months at a time; ref not given; cited from earlier work
DHFR [2] = target: T1, DHFR (Homo sapiens, UniProt P00374)
T1 sequence (P00374 1-187): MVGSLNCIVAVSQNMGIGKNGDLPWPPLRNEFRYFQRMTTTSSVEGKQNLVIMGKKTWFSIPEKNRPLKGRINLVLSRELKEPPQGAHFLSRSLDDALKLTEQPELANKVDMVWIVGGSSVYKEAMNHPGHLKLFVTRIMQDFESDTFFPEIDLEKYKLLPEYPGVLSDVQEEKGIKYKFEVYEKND

[3] = Apoptosis assay (FITC annexin V / propidium iodide flow cytometry); assay type: cell-based; details: human; U3A cells, 6 h time point, same treatment as ATP assay; read-out: viable cells
CHCHD2 = CHCHD2 (Homo sapiens, UniProt Q9Y6H1); assay: Cellular thermal shift assay (CETSA) in intact U3A cells; assay type: cell-based; details: 10 μM, 10 min
Sequence of CHCHD2 (Q9Y6H1 whole entry): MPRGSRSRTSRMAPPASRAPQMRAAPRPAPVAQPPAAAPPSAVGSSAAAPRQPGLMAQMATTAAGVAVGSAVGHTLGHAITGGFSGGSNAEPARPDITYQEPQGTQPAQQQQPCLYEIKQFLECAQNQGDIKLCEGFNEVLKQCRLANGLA
Procedure: (§1) Protein abundance was measured by immunoblotting and band quantification.
U3A cells were cultured in DMEM (Thermo Fisher Scientific) with 10% heat-inactivated fetal bovine serum and 1% penicillin/streptomycin. […] Cells were washed once with PBS, harvested using trypsin, and centrifuged at 300g. The pellet was resuspended in Tris-buffered saline (TBS) supplemented with cOmplete protease inhibitor cocktail (Roche), aliquoted (50 μl; 8 × 10^5 cells per temperature) into PCR strip tubes, and heated at the indicated temperature in a Veriti Thermal Cycler (Applied Biosystems) for 3 min, then cooled for another 3 min at room temperature. Cells were then lysed by freeze–thawing three times with 3-min incubations in an ethanol/dry ice bath and a water bath at 37 °C. The lysates were then centrifuged at 17,000g for 20 min at 4 °C to remove cellular debris and pelleted protein aggregates. Supernatants (40 μl) were transferred to new tubes and prepared for immunoblotting. […] DHFR stabilization was evaluated with superoxide dismutase 1 as a thermostable loading control. Band intensities were quantified using Fiji ([42]) and then plotted and fitted in GraphPad Prism (GraphPad Software, Inc) to obtain apparent Tagg values.
(A) DHFR protein levels in Fig 2C were quantified and plotted. […] Soluble protein levels were analyzed by immunoblotting with the indicated antibodies. […]

STAT3-dependent genes = system: STAT3-dependent genes; design: method as in PMID 33373063; details: chronic lymphocytic leukemia; cited from earlier work
DHFR [4] = target: T1, DHFR; assay: Cellular thermal shift assay (CETSA) in intact U3A cells; assay type: cell-based; details: 10 μM, 10 min
Procedure: as §1
U3A cells were cultured in DMEM (Thermo Fisher Scientific) with 10% heat-inactivated fetal bovine serum and 1% penicillin/streptomycin. […] Cells were washed once with PBS, harvested using trypsin, and centrifuged at 300g. The pellet was resuspended in Tris-buffered saline (TBS) supplemented with cOmplete protease inhibitor cocktail (Roche), aliquoted (50 μl; 8 × 10^5 cells per temperature) into PCR strip tubes, and heated at the indicated temperature in a Veriti Thermal Cycler (Applied Biosystems) for 3 min, then cooled for another 3 min at room temperature. Cells were then lysed by freeze–thawing three times with 3-min incubations in an ethanol/dry ice bath and a water bath at 37 °C. The lysates were then centrifuged at 17,000g for 20 min at 4 °C to remove cellular debris and pelleted protein aggregates. Supernatants (40 μl) were transferred to new tubes and prepared for immunoblotting. […] Briefly, U3A cells in exponential growth rate were collected, resuspended in TBS supplemented with cOmplete protease inhibitor cocktail (Roche), lysed by freeze–thaw cycle, and centrifuged at 17,000g for 20 min at 4 °C. […] Band intensities were quantified using Fiji ([42]) and then plotted and fitted in GraphPad Prism (GraphPad Software, Inc) to obtain apparent Tagg values.

[5] = system: STAT3 target genes in SKBR3 cells; assay: STAT3 target gene expression by qRT-PCR in SKBR3 cells; assay type: cell-based, human; details: 10 μM 1 h, OSM 60 min
Procedure: Cells were stimulated with 10 ng/ml interleukin 6 (Peprotech) or 10 ng/ml OSM (Peprotech). Cells were stimulated for 15 min for whole cell lysate immunoblotting, 60 to 90 min for qRT–PCR, and 5 to 6 h for luciferase reporter assays.
Total RNA was extracted from cells using the RNeasy Mini Kit (Qiagen). Complementary DNA was generated using the TaqMan Reverse Transcription Reagents (Invitrogen). qPCR was performed in triplicate or quadruplicate using the Power SYBR Green PCR Master Mix (Invitrogen) on a 7500 Real-Time PCR System (Applied Biosystems) or a QuantStudio 6 Flex Real-Time PCR System (Applied Biosystems). Specificity of amplification was confirmed by melting curve analysis. Cycle threshold (CT) values for target genes were normalized to the endogenous reference gene GAPDH. Primer sequences (Table S3) were designed from the University of California Santa Cruz genome browser reference mRNA sequences using Primer3 ([43]).

STAT5 = details: original high-throughput screen; cited from earlier work
[6] = system: STAT3 DNA binding in SKBR3 cells; assay: Chromatin immunoprecipitation, STAT3 binding at target genes; assay type: cell-based, human; details: 10 μM 1 h, 10 ng/ml LIF 30 min
Procedure: (§2) Binding at the indicated target genes was assessed by quantitative RT–PCR. Data are expressed as percent of input.
(§3) Nuclei were centrifuged at 660g for 5 min at 4 °C and lysed in 300 μl of nuclear lysis buffer (50 mM Tris [pH 8.1], 10 mM EDTA, 1% SDS, and phosphatase and protease inhibitors). […] Lysate was then added to 60 μl of Protein A/G PLUS agarose beads (catalog no.: 2003; Santa Cruz Biotechnology) and rotated for 4 to 6 h at 4 °C. […] Beads were resuspended in 150 μl elution buffer (100 mM sodium bicarbonate and 1% SDS) and incubated overnight at 65 °C. DNA was purified using a PCR Purification Kit (Qiagen) according to the manufacturer's protocol. qPCR was performed using the indicated primers (Table S3). Results were normalized to input.

DHFR [7] = target: T1, DHFR; details: DHFR enzymatic IC50
[8] = target: proteins of U3A human fibrosarcoma cells (4462 proteins detected) (Homo sapiens, UniProt Q9BZJ0); assay type: cell-based; details: protein CRNKL1; U3A cells
[9] = target: proteins of U3A human fibrosarcoma cells (4462 proteins detected) (Homo sapiens, UniProt Q9Y6H1); assay type: cell-based; details: protein CHCHD2; CHCHD2P9; U3A, 10 μM, 2 h
Sequence of proteins of U3A human fibrosarcoma cells (4462 proteins detected) (Homo sapiens, UniProt Q9Y6H1) (Q9Y6H1 whole entry): as above

[10] = target: proteins of U3A human fibrosarcoma cells (4462 proteins detected) (Homo sapiens, UniProt Q9H871); assay type: cell-based; details: protein RMND5A; U3A cells
Sequence of proteins of U3A human fibrosarcoma cells (4462 proteins detected) (Homo sapiens, UniProt Q9H871) (Q9H871 whole entry): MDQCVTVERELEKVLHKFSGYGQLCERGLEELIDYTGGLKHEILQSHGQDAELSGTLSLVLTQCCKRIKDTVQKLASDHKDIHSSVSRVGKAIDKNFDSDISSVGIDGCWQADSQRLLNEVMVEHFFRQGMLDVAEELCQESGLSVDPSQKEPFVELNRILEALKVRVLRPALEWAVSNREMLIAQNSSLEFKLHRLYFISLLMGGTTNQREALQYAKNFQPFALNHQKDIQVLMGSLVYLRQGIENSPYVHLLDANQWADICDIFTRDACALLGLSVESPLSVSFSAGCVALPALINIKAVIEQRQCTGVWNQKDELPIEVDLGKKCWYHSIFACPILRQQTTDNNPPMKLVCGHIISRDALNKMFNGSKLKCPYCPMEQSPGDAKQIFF

[11] = target: proteins of U3A human fibrosarcoma cells (4462 proteins detected) (Homo sapiens, UniProt Q4VC31); assay type: cell-based; details: protein CCDC58; U3A cells
Sequence of proteins of U3A human fibrosarcoma cells (4462 proteins detected) (Homo sapiens, UniProt Q4VC31) (Q4VC31 whole entry): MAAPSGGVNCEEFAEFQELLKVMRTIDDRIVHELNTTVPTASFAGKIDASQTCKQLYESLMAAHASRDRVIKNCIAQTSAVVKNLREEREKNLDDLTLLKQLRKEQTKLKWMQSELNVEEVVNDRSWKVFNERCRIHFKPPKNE

[12] = target: proteins of U3A human fibrosarcoma cells (4462 proteins detected) (Homo sapiens, UniProt Q86TS9); assay type: cell-based; details: protein MRPL52; soluble abundance after heat, U3A cells
[13] = target: proteins of U3A human fibrosarcoma cells (4462 proteins detected) (Homo sapiens, UniProt Q9UQR1); assay type: cell-based; details: protein ZNF148; U3A, 10 μM, 2 h
[14] = target: proteins of U3A human fibrosarcoma cells (4462 proteins detected) (Homo sapiens, UniProt P11717); assay type: cell-based; details: protein IGF2R; soluble abundance after heat, U3A cells
Sequence of proteins of U3A human fibrosarcoma cells (4462 proteins detected) (Homo sapiens, UniProt P11717) (P11717 41-2491): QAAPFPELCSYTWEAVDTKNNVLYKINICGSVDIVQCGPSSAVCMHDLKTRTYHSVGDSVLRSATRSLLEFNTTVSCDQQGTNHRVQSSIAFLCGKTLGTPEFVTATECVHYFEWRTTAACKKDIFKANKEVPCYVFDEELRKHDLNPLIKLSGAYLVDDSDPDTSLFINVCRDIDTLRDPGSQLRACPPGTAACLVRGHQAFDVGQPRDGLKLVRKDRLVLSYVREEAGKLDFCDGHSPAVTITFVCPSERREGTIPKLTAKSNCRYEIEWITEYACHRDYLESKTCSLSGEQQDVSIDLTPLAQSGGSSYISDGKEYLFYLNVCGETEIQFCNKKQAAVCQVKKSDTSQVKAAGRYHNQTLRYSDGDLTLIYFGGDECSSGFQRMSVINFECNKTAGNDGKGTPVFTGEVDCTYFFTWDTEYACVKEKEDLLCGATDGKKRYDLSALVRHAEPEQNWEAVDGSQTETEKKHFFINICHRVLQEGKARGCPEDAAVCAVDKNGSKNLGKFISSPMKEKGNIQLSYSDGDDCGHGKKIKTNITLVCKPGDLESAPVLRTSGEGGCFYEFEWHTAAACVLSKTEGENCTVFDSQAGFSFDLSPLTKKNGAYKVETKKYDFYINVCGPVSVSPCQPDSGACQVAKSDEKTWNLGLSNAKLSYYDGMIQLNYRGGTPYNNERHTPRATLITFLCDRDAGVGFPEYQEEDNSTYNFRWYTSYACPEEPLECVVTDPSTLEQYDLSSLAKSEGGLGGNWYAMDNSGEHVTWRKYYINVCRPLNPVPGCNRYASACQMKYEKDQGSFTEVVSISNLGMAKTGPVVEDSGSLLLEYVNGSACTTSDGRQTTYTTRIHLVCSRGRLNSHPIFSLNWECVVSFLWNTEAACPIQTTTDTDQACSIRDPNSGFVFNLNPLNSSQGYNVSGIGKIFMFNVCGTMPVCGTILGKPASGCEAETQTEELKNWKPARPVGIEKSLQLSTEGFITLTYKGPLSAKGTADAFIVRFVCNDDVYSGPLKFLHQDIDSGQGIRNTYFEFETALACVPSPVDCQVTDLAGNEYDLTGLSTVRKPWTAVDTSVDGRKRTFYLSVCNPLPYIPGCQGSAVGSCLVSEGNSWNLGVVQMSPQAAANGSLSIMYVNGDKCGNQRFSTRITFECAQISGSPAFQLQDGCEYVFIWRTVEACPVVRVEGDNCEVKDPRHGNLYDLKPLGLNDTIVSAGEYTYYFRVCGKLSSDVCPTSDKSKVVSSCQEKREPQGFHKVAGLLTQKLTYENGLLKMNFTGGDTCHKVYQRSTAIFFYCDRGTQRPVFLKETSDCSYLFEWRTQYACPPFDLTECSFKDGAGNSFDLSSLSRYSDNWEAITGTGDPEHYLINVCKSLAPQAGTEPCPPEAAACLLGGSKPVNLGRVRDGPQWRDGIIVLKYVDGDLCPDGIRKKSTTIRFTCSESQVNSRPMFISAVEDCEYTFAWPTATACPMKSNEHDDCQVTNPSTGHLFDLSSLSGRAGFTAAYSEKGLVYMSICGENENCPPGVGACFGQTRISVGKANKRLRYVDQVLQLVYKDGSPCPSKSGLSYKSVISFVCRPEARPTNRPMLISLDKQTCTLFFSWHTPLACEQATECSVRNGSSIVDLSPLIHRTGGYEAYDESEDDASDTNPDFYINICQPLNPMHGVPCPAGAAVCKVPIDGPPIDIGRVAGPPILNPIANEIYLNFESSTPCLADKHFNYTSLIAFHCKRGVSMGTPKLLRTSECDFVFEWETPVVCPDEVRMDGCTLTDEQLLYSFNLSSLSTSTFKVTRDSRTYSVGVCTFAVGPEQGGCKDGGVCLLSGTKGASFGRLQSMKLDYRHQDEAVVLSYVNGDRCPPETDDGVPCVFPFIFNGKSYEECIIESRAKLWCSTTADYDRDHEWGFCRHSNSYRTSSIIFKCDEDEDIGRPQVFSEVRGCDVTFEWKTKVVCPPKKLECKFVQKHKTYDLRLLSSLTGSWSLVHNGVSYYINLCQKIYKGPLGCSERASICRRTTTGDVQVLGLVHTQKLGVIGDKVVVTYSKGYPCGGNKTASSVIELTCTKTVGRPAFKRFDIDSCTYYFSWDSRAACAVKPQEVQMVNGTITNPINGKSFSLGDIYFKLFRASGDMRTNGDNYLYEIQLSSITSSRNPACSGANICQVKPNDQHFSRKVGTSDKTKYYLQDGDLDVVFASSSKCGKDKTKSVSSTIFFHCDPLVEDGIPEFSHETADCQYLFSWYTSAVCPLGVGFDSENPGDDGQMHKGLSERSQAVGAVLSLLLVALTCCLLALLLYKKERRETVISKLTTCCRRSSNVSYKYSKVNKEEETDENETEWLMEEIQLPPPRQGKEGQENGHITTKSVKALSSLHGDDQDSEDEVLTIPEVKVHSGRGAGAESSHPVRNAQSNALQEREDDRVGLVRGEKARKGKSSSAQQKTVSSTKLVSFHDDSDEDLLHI

[15] = target: proteins of U3A human fibrosarcoma cells (4462 proteins detected) (Homo sapiens, UniProt Q16774); assay type: cell-based; details: protein GUK1; U3A, 10 μM, 2 h
[16] = target: proteins of U3A human fibrosarcoma cells (4462 proteins detected) (Homo sapiens, UniProt Q9Y608); assay type: cell-based; details: protein LRRFIP2, U3A cells
Sequence of proteins of U3A human fibrosarcoma cells (4462 proteins detected) (Homo sapiens, UniProt Q9Y608) (Q9Y608 whole entry): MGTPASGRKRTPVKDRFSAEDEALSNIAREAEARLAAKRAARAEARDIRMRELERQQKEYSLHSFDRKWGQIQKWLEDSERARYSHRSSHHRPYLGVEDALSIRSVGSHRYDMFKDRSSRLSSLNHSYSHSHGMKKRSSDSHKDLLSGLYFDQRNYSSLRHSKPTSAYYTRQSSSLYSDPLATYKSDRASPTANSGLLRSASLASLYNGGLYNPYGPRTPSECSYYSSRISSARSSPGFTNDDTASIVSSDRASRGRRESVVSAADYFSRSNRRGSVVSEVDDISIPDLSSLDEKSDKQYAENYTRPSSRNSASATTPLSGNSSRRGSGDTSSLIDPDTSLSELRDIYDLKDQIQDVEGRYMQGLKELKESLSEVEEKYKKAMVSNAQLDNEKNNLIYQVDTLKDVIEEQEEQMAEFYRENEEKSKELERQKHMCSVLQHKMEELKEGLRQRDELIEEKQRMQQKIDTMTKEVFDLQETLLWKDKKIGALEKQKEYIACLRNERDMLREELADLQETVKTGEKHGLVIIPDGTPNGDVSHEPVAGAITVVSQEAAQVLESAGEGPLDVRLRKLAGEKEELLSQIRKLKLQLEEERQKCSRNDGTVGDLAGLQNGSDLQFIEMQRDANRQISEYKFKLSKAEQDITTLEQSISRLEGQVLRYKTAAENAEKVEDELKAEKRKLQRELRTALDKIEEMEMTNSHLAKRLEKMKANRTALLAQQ

[17] = target: proteins of U3A human fibrosarcoma cells (4462 proteins detected) (Homo sapiens, UniProt Q9Y5N6); assay type: cell-based; details: protein ORC6; U3A cells
Sequence of proteins of U3A human fibrosarcoma cells (4462 proteins detected) (Homo sapiens, UniProt Q9Y5N6) (Q9Y5N6 whole entry): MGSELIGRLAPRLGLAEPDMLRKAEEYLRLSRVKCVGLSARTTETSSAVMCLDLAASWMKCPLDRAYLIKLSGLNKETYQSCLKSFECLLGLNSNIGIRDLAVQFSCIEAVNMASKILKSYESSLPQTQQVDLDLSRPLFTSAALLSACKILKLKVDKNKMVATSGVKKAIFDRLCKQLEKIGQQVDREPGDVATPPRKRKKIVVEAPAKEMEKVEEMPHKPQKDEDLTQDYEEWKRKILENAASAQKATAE

[18] = target: proteins of U3A human fibrosarcoma cells (4462 proteins detected) (Homo sapiens, UniProt Q14651); assay type: cell-based; details: protein PLS1; U3A cells
[19] = target: proteins of U3A human fibrosarcoma cells (4462 proteins detected) (Homo sapiens, UniProt P56282); assay type: cell-based; details: protein POLE2; U3A cells
Sequence of proteins of U3A human fibrosarcoma cells (4462 proteins detected) (Homo sapiens, UniProt P56282) (P56282 whole entry): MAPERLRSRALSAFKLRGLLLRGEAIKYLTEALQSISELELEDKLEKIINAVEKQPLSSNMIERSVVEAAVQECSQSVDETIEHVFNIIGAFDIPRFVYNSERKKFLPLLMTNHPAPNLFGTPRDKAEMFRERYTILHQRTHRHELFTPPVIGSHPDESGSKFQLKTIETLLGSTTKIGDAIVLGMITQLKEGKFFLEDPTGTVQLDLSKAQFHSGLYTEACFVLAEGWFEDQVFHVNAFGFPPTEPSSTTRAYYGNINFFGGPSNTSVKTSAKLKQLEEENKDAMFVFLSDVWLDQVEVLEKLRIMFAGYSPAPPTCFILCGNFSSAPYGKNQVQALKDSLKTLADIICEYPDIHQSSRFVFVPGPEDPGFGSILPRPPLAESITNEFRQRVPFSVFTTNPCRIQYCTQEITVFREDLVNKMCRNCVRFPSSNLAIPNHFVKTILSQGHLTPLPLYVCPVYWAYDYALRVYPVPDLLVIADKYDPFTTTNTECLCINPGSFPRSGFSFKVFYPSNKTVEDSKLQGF

[20] = target: proteins of U3A human fibrosarcoma cells (4462 proteins detected) (Homo sapiens, UniProt Q53FT3); assay type: cell-based; details: protein C11orf73; U3A, 10 μM, 2 h
Sequence of proteins of U3A human fibrosarcoma cells (4462 proteins detected) (Homo sapiens, UniProt Q53FT3) (Q53FT3 whole entry): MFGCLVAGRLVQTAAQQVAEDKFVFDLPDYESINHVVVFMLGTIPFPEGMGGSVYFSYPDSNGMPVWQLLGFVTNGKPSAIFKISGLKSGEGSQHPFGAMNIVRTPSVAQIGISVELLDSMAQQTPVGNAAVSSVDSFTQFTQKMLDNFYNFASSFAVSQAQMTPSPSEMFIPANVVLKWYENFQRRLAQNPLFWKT

physchem = details: DHFR enzymatic assay medium with 5% DMSO, 37 °C, aqueous with cosolvent or surfactant or cyclodextrin, kinetic from dmso stock
[21] = system: STAT3 target genes in U3A cells; assay: STAT3 target gene expression by qRT-PCR in U3A cells; assay type: cell-based, human; details: 10 μM 1 h, OSM 90 min
[22] = system: RNA pol II recruitment in SKBR3 cells; assay: Chromatin immunoprecipitation, RNA polymerase II binding at target genes; assay type: cell-based, human; details: 10 μM 1 h, 10 ng/ml LIF 30 min
Procedure: as §2, §3

[23] = 11 μM DHFR, 130 μM ligand, 200 μM NADPH, […] DMSO, 25 °C

Which results are given for `CCc1nc(N)nc(N)c1-c1ccc(Cl)cc1` [pyrimethamine]?
concentration routinely achieved in the serum of patients [1]: 10 µM; ΔH (DHFR [2]; [23]): -48.5 ± 2.9 kJ/mol; ΔS (DHFR [2]; [23]): −2.8 ± 1 cal/mol/°C; stoichiometry (DHFR [2]; one-site model): 1.0 ± 0.2 sites; viability at 6 h, 10 μM [3]: ~100%; CHCHD2 stabilization by CETSA (CHCHD2): failed to validate; inhibition of expression of STAT3-dependent genes in patients (STAT3-dependent genes): on-target activity; DHFR aggregation temperature (Tagg) in the presence of drug (DHFR [4]): 50.6 °C; OSM-stimulated BCL6 expression [5]: significantly reduced; transcriptional activity of STAT5 (STAT5): no effect; LIF-stimulated STAT3 binding at BCL6 [6]: minimal reduction; difference in potency between pyrimethamine and methotrexate (DHFR [7]): ~500 fold; Log2 (PYR/DMSO) [8]: 0.16; Log2 (PYR/DMSO), CHCHD2; CHCHD2P9 [9]: 0.36; Log2 (PYR/DMSO) [10]: 0.21; Log2 (PYR/DMSO) [11]: 0.20; Log2 (PYR/DMSO) [12]: 0.15; Log2 (PYR/DMSO), ZNF148 [13]: 0.26; Log2 (PYR/DMSO) [14]: 0.15; Log2 (PYR/DMSO), GUK1 [15]: -0.14; Log2 (PYR/DMSO) [16]: -0.04; Log2 (PYR/DMSO) [17]: 0.18; Log2 (PYR/DMSO) [18]: 0.17; Log2 (PYR/DMSO) [19]: 0.19; Log2 (PYR/DMSO), C11orf73 [20]: 0.28; solubility (physchem): > 1000 µM; OSM-stimulated BCL6 expression [21]: significantly reduced; pol II recruitment at BCL6 [22]: complete loss
